ChEMBL document CHEMBL2150933 (J Med Chem, 2012)
Calls of active or inactive are those of the source. The rule behind the calls is not given here.

How the values were obtained:
MDA-MB-468 = test: Cytotoxicity against human MDA-MB-468 cells after 48 hrs by SRB assay; format: functional; details: MDA-MB-468, 48 h
[1] = Toxicity in iv dosed CD1 mouse administered as single dose; format: organism-based; details: in vivo
[2] = Toxicity in ip dosed CD1 mouse administered as single dose; format: organism-based; details: in vivo
Mus musculus [3] = test: Toxicity in iv dosed CD1 mouse administered Q2D for 8 days; format: organism-based; details: mouse, in vivo, 192 h
[4] = Plasma concentration in CD1 mouse at 18 mg/kg, iv administered as single dose measured after 30 mins; format: ADME, organism-based; design: dose 18 mg/kg, route intravenous
[5] = Plasma concentration in CD1 mouse at 18 mg/kg, iv administered as single dose measured after 120 mins; format: ADME, organism-based; design: dose 18 mg/kg, route intravenous
COLO 205 [6] = test: Antitumor activity against human COLO205 cells xenografted in athymic nu/nu Harlan mouse assessed as tumor growth inhibition at 10 mg/kg, iv administered Q2D for 10 days relative to control; format: functional, organism-based; design: dose 10 mg/kg
COLO 205 [7] = test: Antitumor activity against human COLO205 cells xenografted in athymic nu/nu Harlan mouse assessed as tumor growth inhibition at 20 mg/kg, iv administered Q3D for 10 days relative to control; format: functional, organism-based; design: dose 20 mg/kg
SK-MEL-2 = test: Antitumor activity against human SK-MEL-2 cells xenografted in athymic nu/nu Harlan mouse assessed as tumor growth inhibition at 20 mg/kg, iv administered Q3D for 10 days relative to control; format: functional, organism-based; design: dose 20 mg/kg
Mus musculus [8] = test: Toxicity in athymic nu/nu Harlan mouse xenografted with human SK-MEL-2 cells assessed as adverse reactions at 20 mg/kg, iv administered Q3D for 10 days relative to control; format: organism-based; design: dose 20 mg/kg, route intravenous; details: in vivo, 240 h
Mus musculus [9] = test: Toxicity in athymic nu/nu Harlan mouse xenografted with human SK-MEL-2 cells assessed as mortality at 10 mg/kg, iv administered Q2D for 10 days relative to control; format: organism-based; design: dose 10 mg/kg, route intravenous; details: in vivo, 240 h
Mus musculus [10] = test: Toxicity in athymic nu/nu Harlan mouse xenografted with human SK-MEL-2 cells assessed as mortality at 20 mg/kg, iv administered Q3D for 10 days relative to control; format: organism-based; design: dose 20 mg/kg, route intravenous; details: in vivo, 240 h
A549 [11] = test: Cytotoxicity against human A549 cells after 48 hrs by SRB assay; format: functional; details: A549, 48 h, read-out: pGI50 (converted)
RPMI-8226 = test: Cytotoxicity against human RPMI8226 cells after 48 hrs by SRB assay; format: functional; details: RPMI-8226, 48 h
K562 = test: Cytotoxicity against human K562 cells after 48 hrs by SRB assay; format: functional; details: K562, 48 h
HL-60 = test: Cytotoxicity against human HL60 cells after 48 hrs by SRB assay; format: functional; details: HL-60, 48 h
BXPC-3 = test: Cytotoxicity against human BxPC3 cells after 72 hrs by MTT assay; format: functional; details: BXPC-3, 72 h
A549 [12] = test: Cytotoxicity against human A549 cells after 72 hrs by MTT assay; format: functional; details: A549, 72 h
NCI-H226 = test: Cytotoxicity against human NCI-H226 cells after 48 hrs by SRB assay; format: functional; details: NCI-H226, 48 h
NCI-H23 = test: Cytotoxicity against human NCI-H23 cells after 48 hrs by SRB assay; format: functional; details: NCI-H23, 48 h
COLO 205 [13] = test: Cytotoxicity against human COLO205 cells after 48 hrs by SRB assay; format: functional; details: COLO 205, 48 h, read-out: pGI50 (converted)
HCC 2998 = test: Cytotoxicity against human HCC2998 cells after 48 hrs by SRB assay; format: functional; details: HCC 2998, 48 h
HCT-116 = test: Cytotoxicity against human HCT116 cells after 48 hrs by SRB assay; format: functional; details: HCT-116, 48 h
HCT-15 = test: Cytotoxicity against human HCT15 cells after 48 hrs by SRB assay; format: functional; details: HCT-15, 48 h
HT-29 = test: Cytotoxicity against human HT-29 cells after 48 hrs by SRB assay; format: functional; details: HT-29, 48 h
KM12 = test: Cytotoxicity against human KM12 cells after 48 hrs by SRB assay; format: functional; details: KM12, 48 h
SW-620 = test: Cytotoxicity against human SW620 cells after 48 hrs by SRB assay; format: functional; details: SW-620, 48 h
SF-268 = test: Cytotoxicity against human SF268 cells after 48 hrs by SRB assay; format: functional; details: SF-268, 48 h
SF-295 = test: Cytotoxicity against human SF295 cells after 48 hrs by SRB assay; format: functional; details: SF-295, 48 h, read-out: pGI50 (converted)
SF-539 = test: Cytotoxicity against human SF539 cells after 48 hrs by SRB assay; format: functional; details: SF-539, 48 h
SNB-19 = test: Cytotoxicity against human SNB19 cells after 48 hrs by SRB assay; format: functional; details: SNB-19, 48 h
LOX IMVI = test: Cytotoxicity against human LOXIMVI cells after 48 hrs by SRB assay; format: functional
Malme-3M = test: Cytotoxicity against human MALME-3M cells after 48 hrs by SRB assay; format: functional
MDA-MB-435 = test: Cytotoxicity against human MDA-MB-435 cells after 48 hrs by SRB assay; format: functional; details: MDA-MB-435, 48 h
SK-MEL-5 = test: Cytotoxicity against human SK-MEL-5 cells after 48 hrs by SRB assay; format: functional; details: SK-MEL-5, 48 h
UACC-257 = test: Cytotoxicity against human UACC257 cells after 48 hrs by SRB assay; format: functional; details: UACC-257, 48 h
UACC-62 = test: Cytotoxicity against human UACC62 cells after 48 hrs by SRB assay; format: functional; details: UACC-62, 48 h
IGROV-1 = test: Cytotoxicity against human IGROV1 cells after 48 hrs by SRB assay; format: functional; details: IGROV-1, 48 h
[14] = Cytotoxicity against human NCI-ADR-RES cells after 48 hrs by SRB assay; format: functional
SK-OV-3 = test: Cytotoxicity against human SKOV3 cells after 48 hrs by SRB assay; format: functional; details: SK-OV-3, 48 h
[15] = Cytotoxicity against human 786-O cells after 48 hrs by SRB assay; format: functional; details: 786-0, 48 h
CAKI-1 = test: Cytotoxicity against human Caki1 cells after 48 hrs by SRB assay; format: functional; details: CAKI-1, 48 h
RXF 393 = test: Cytotoxicity against human RXF393 cells after 48 hrs by SRB assay; format: functional; details: RXF 393, 48 h
UO-31 = test: Cytotoxicity against human UO31 cells after 48 hrs by SRB assay; format: functional; details: UO-31, 48 h
DU-145 = test: Cytotoxicity against human DU145 cells after 48 hrs by SRB assay; format: functional; details: DU-145, 48 h
MDA-MB-231 = test: Cytotoxicity against human MDA-MB-231 cells after 48 hrs by SRB assay; format: functional; details: MDA-MB-231, 48 h
Hs-578T = test: Cytotoxicity against human Hs578T cells after 48 hrs by SRB assay; format: functional

## CO[C@@H]([C@@H]1Cc2cc3cc(O[C@H]4C[C@@H](O[C@H]5C[C@@H](O)[C@H](O)[C@@H](C)O5)[C@H](O)[C@@H](C)O4)c(C)c(O)c3c(O)c2C(=O)[C@H]1O[C@H]1C[C@@H](O[C@H]2C[C@@H](O[C@H]3C[C@H](O)[C@H](O)[C@@H](C)O3)[C@H](O)[C@@H](C)O2)[C@H](O)[C@@H](C)O1)[C@@H](O)C(C)=O
MDA-MB-468
  GI50: 33.9 nM
[1]
  MTD: 64 mg/kg
[2]
  MTD: 200 mg/kg
Mus musculus [3]
  MTD: 12 mg/kg
[4]
  concentration at 0.5 h: 1700 nM
[5]
  concentration at 2 h: < 100 nM
COLO 205 [6]
  TGI: Active
COLO 205 [7]
  TGI: Active
SK-MEL-2
  TGI: Active
Mus musculus [8]
  Activity: Non-toxic
Mus musculus [9]
  Activity: Non-toxic
Mus musculus [10]
  Activity: Non-toxic
A549 [11]
  GI50: 20.4 nM
RPMI-8226
  GI50: 16.2 nM
K562
  GI50: 17.4 nM
HL-60
  GI50: 24 nM
BXPC-3
  GI50: 300 nM
A549 [12]
  GI50: 300 nM
NCI-H226
  GI50: 20.4 nM
NCI-H23
  GI50: 22.4 nM
COLO 205 [13]
  GI50: 21.4 nM
HCC 2998
  GI50: 16.2 nM
HCT-116
  GI50: 16.6 nM
HCT-15
  GI50: 1050 nM
HT-29
  GI50: 21.4 nM
KM12
  GI50: 17.8 nM
SW-620
  GI50: 22.4 nM
SF-268
  GI50: 22.4 nM
SF-295
  GI50: 19.9 nM
SF-539
  GI50: 25.1 nM
SNB-19
  GI50: 28.2 nM
LOX IMVI
  GI50: 16.6 nM
Malme-3M
  GI50: 19.5 nM
MDA-MB-435
  GI50: 23.4 nM
SK-MEL-5; read-out: GI50
  GI50: 16 nM
SK-MEL-5; read-out: pGI50 (converted)
  GI50: 17 nM
UACC-257
  GI50: 41.7 nM
UACC-62
  GI50: 12 nM
IGROV-1; read-out: GI50
  GI50: 10 nM
IGROV-1; read-out: pGI50 (converted)
  GI50: 10.5 nM
[14]
  GI50: 50100 nM
SK-OV-3
  GI50: 26.3 nM
[15]
  GI50: 32.4 nM
CAKI-1
  GI50: 138 nM
RXF 393
  GI50: 29.5 nM
UO-31
  GI50: 69.2 nM
DU-145
  GI50: 20.4 nM
MDA-MB-231; read-out: GI50
  GI50: 50 nM
MDA-MB-231; read-out: pGI50 (converted)
  GI50: 47.9 nM
Hs-578T
  GI50: 16.2 nM
